Literature values, collected in patent US20080292591A1, “Tumor mouse models using lentiviral vectors” (The Salk Institute for Biological Studies, priority 2007, published 2008).

Experiments:
xenografts of tumors = details: animal models bearing xenografts of tumors

In the case of `Cc1cc(Nc2cc(N3CCN(C)CC3)nc(Sc3ccc(NC(=O)C4CC4)cc3)n2)n[nH]1` [VX-680], the “antiproliferative activity in vitro” value (a variety of cell lines) is listed as “broad and potent antiproliferative activity” and the “antitumor activity in animal models” value (xenografts of tumors) is listed as “robust antitumor activity”.
